# Test system: Human primary T-cells
# Assay: Cell Titer-Glo, Human primary T Cell, IL2 (proliferation)
# Format: cell-based
# Conditions: IL-2 stimulated primary T-cell proliferation, 72 hours at 37° C., Cell Titer-Glo luminescence
# Text: The activity of the compounds described herein can further be characterized by assaying the effect of the 2,4-pyrimidinediamine compounds described herein on the proliferative response of primary human T-cells. In this assay, primary human. T-cells derived from peripheral blood and pre-activated through stimulation of the T-cell receptor and CD28, proliferate in culture in response to the cytokine Interleukin-2 (IL-2). This proliferative response is dependent on the activation of JAK1 and JAK3 tyrosine kinases, which phosphorylate and activate the transcription factor Stat-5. The primary human T-cells are incubated with the 2,4-pyrimidinediamine compounds in the presence of IL-2 for 72 hours, and at the assay endpoint intracellular ATP concentrations are measured to assess cell viability. A reduction in cell proliferation compared to control conditions is indicative of inhibition of the JAK kinase pathway.
# Cell Titer-Glo, Human primary T Cell, IL2
# Materials and Reagents: Dimethyl Sulfoxide (DMSO) (Sigma-Aldrich, Cat# D2650) was used as a control. The following reagents were used: Ficoll Hypaque (Amersham Pharmacia, Cat#17-1440-03), Anti-Human CD3 (BD Pharmingen, Cat#555336), Anti-Human CD28 (Immunotech, Cat# IM1376), Yssel's Media (Gemini Bio-products, Cat#400-103), RPMI 1640 (Cellgro, Cat#10-040-CM), Fetal Bovine Serum (JRH, Cat#12106-500M), and […] (R& D Systems, Cat#202-IL).
# Human primary T-cells were isolated and cultured according to the following procedure. Whole blood was obtained from a healthy volunteer, mixed 1:1 with PBS, layered on to Ficoll Hypaque in 2:1 blood/PBS:ficoll ratio and centrifuged for 30 min at 4° C. at 1750 rpm. The lymphocytes at the serum: ficoll interface were recovered and washed twice with 5 volumes of PBS. The cells were resuspended in Yssel's medium containing 40 U/mL IL-2 and seeded into a flask pre-coated with […] anti-CD3 and […] anti-CD28. The primary T-cells were stimulated for 3-4 days, then transferred to a fresh flask and maintained in RPMI with 10% FBS and 40 U/mL IL-2.
# Primary T-cells were starved of IL-2 overnight and resuspended in Yssel's medium at 2×10^6 cells/mL. 50 μL of cell suspension containing 80 U/mL IL-2 was added to each well of a flat bottom 96 well black plate. For the unstimulated control, IL-2 was omitted from the last column on the plate. Compound was serially diluted in DMSO from 5 mM in 3-fold dilutions, and then diluted 1:250 in Yssel's medium. 50 μL of 2× compound was added per well in duplicate and the cells were allowed to proliferate for 72 hours at 37° C.
# Proliferation was measured using Cell Titer-Glo. The substrate was thawed and allowed to come to room temperature. After mixing the Cell Titer-Glo reagent and diluent together, 100 μL was added to each well. The plates were mixed on an orbital shaker for two minutes to induce lysis and incubated at room temperature for an additional ten minutes to allow the signal to equilibrate. The Luminescence was read on the Wallac Plate Reader (Wallac Victor2 1420 Multilabel Counter).
row,SMILES,IC50 [nM]
1,"CCNS(=O)(=O)NCc1cccc(Nc2nc(Nc3cccc(S(N)(=O)=O)c3)ncc2C)c1 [Compound I-11, N2-(3-Aminosulfonylphenyl)-N4-[3-[(N-ethylsulfamoylamino)methyl]phenyl]-5-methyl-2,4-pyrimidinediamine]",< 500
2,"CCNS(=O)(=O)NCc1ccc(Nc2nc(Nc3cccc(S(N)(=O)=O)c3)ncc2Cl)c(C)c1 [Compound I-15, N2-(3-Aminosulfonylphenyl)-5-chloro-N4-[4-[(N-ethylsulfamoylamino)methyl]-2-methylphenyl]-2,4-pyrimidinediamine]",< 500
3,"CCNS(=O)(=O)NCc1cccc(Nc2nc(Nc3cccc(S(N)(=O)=O)c3)ncc2Cl)c1 [Compound I-9, N2-(3-Aminosulfonylphenyl)-5-chloro-N4-[3-[(N-ethylsulfamoylamino)methyl]phenyl]-2,4-pyrimidinediamine]",< 500
4,"CCNS(=O)(=O)NCc1ccc(Nc2nc(Nc3cccc(S(N)(=O)=O)c3)ncc2Cl)cc1 [Compound I-5, N2-(3-Aminosulfonylphenyl)-5-chloro-N4-[4-[(N-ethylsulfamoylamino)methyl]phenyl]-2,4-pyrimidinediamine]",< 500
5,"CCNS(=O)(=O)NCc1ccc(Nc2nc(Nc3ccc(S(N)(=O)=O)cc3)ncc2C)cc1 [Compound I-8, N2-(4-Aminosulfonylphenyl)-N4-[4-[(N-ethylsulfamoylamino)methyl]phenyl]-5-methyl-2,4-pyrimidinediamine]",< 500
6,"CCNS(=O)(=O)NCc1cccc(Nc2nc(Nc3ccc(S(N)(=O)=O)cc3)ncc2C)c1 [Compound I-12, N2-(4-Aminosulfonylphenyl)-N4-[3-[(N-ethylsulfamoylamino)methyl]phenyl]-5-methyl-2,4-pyrimidinediamine]",< 500
7,"NS(=O)(=O)c1ccc(Nc2ncc(Cl)c(Nc3ccc(CNS(=O)(=O)NC4CC4)cc3)n2)cc1 [Compound I-19, N2-(4-Aminosulfonylphenyl)-5-chloro-N4-[4-[(N-cyclopropylsulfamoylamino)methyl]phenyl]-2,4-pyrimidinediamine]",< 500
8,"CCNS(=O)(=O)NCc1cccc(Nc2nc(Nc3ccc(S(N)(=O)=O)cc3)ncc2Cl)c1 [Compound I-10, N2-(4-Aminosulfonylphenyl)-5-chloro-N4-[3-[(N-ethylsulfamoylamino)methyl]phenyl]-2,4-pyrimidinediamine]",< 500
9,"CCNS(=O)(=O)NCc1cccc(Nc2nc(Nc3cccc(S(N)(=O)=O)c3)ncc2F)c1 [Compound I-13, N2-(3-Aminosulfonylphenyl)-N4-[3-[(N-ethylsulfamoylamino)methyl]phenyl]-5-fluoro-2,4-pyrimidinediamine]",< 500
